Results from PMC12340957, “Interactions between Lipopolysaccharide and Peptide Bacteriocin BacSp222 Influence Their Biological Activities” (ACS Infectious Diseases, 2025).
Ends that are not written are not given here. * marks the point of attachment. For = O=C*

Test: Gel filtration of LPS, BacSp222 and complexes
Format: physicochemical
Description: Gel filtration was conducted on a Superdex 200 Increase 10/300 GL (Cytiva, Marlborough, MA, USA) column using an UltiMate 3000 HPLC apparatus (Thermo, Waltham, MA, USA). The separations were performed at room temperature in 50 mM NH4COOH pH 5.8 at a flow rate of 0.6 mL/min. The spectrophotometric detection was conducted at 215 and 280 nm, and before separations, the column was calibrated using tryptophan (204 Da), […] (75 kDa), aldolase (158 kDa), ferritin (440 kDa), and Blue Dextran 2000 (2 MDa). The following samples were separated: (1) 375 μg of LPS O55:B5 (IEC), (2) 375 μg of LPS O111:B4 (PE), (3) 75 μg of BacSp222, (4) 375 μg of LPS O55:B5 (IEC) + 75 μg BacSp222, and (5) 375 μg of LPS O111:B4 (PE) + 75 μg BacSp222. All above solutions were prepared in phosphate-buffered saline (PBS) without Ca^2+ and Mg^2+ (Gibco, Paisley, UK) and were preincubated before separation for 15 min at 37 °C. The fractions containing LPS O55:B5 alone and LPS-BacSp222 complex, visible as peaks eluting at 12.5–14 min and 12.5–16 min, both marked by arrows in Figure , were manually collected, freeze-dried, and subjected to sodium dodecyl sulfate polyacrylamide gel electrophoresis (SDS-PAGE) under reducing conditions. […]

For-MAGLLRFLLSKGRALYNWAKSHVGKVWEWLKSGATYEQIKEWIENALGWR [BacSp222]
BacSp222 peak at 36 min after incubation with LPS (375 μg LPS + 75 μg BacSp222, 15 min, 37 °C, peptide referred to as "the bacteriocin"): disappears completely
apparent molecular mass, gel filtration (peptide peak) (peak at 36 min, Superdex 200 Increase, 50 mM NH4COOH pH 5.8, 0.6 mL/min, 215 nm, room temperature): 5.5 kDa
